ChEMBL document CHEMBL4507268 (2021)

What was measured:
Settings in all cases: Compound concentration 1000.0 nM
[1] = tested on: Mast/stem cell growth factor receptor Kit (Homo sapiens), P10721 [V559D,V654A]
[2] = target: Phosphatidylinositol 4,5-bisphosphate 3-kinase catalytic subunit delta isoform (Homo sapiens) (UniProt O00329)
[3] = target: T1, MAP kinase-activated protein kinase 5 (Homo sapiens) (UniProt Q8IW41)
T1 sequence (whole entry): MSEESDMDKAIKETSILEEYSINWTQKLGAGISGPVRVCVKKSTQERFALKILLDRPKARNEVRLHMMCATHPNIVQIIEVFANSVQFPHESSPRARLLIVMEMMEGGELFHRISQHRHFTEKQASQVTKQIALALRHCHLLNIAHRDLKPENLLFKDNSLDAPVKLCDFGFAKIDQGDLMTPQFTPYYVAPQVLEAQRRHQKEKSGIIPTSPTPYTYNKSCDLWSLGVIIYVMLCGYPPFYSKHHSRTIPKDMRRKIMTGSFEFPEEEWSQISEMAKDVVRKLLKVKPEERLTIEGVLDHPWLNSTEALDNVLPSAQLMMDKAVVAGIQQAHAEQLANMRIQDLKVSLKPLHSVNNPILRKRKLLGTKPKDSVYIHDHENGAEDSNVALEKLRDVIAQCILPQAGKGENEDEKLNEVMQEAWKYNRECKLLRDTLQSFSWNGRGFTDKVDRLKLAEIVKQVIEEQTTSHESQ

[4] = target: Phosphatidylinositol 4,5-bisphosphate 3-kinase catalytic subunit alpha isoform (Homo sapiens) (UniProt P42336)
Phosphatidylinositol 4,5-bisphosphate 3-kinase catalytic subunit alpha isoform (Homo sapiens), sequence (P42336 whole entry, canonical isoform): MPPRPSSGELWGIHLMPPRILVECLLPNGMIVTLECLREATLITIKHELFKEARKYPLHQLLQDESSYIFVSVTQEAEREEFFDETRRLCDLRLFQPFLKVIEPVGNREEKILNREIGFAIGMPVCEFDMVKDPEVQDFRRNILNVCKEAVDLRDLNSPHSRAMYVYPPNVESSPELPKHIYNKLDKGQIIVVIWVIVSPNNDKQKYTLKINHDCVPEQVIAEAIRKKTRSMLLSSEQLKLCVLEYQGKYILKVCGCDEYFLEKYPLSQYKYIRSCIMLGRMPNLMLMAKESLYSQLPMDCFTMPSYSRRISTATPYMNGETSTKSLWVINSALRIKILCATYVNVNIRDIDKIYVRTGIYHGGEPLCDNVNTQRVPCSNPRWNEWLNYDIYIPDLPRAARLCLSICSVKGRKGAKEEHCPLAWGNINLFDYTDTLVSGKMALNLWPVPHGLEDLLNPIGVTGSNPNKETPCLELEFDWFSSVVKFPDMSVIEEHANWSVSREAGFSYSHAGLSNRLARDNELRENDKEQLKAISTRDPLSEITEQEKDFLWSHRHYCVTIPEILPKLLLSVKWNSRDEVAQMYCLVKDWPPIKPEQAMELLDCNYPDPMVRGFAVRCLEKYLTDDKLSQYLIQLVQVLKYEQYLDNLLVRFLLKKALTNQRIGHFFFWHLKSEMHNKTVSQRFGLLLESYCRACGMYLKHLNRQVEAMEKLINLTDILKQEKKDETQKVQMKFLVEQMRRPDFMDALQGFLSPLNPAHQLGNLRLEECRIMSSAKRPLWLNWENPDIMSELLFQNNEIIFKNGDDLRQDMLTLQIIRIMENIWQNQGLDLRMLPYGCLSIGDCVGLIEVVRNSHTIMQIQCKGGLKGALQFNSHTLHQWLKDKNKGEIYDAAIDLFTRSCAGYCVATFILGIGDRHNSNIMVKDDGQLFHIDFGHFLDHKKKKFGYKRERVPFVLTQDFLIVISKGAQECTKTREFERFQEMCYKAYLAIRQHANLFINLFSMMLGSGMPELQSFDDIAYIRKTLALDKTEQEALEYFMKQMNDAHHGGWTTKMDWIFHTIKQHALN

[5] = target: T2, MAP/microtubule affinity-regulating kinase 4 (Homo sapiens) (UniProt Q96L34)
T2 sequence (whole entry): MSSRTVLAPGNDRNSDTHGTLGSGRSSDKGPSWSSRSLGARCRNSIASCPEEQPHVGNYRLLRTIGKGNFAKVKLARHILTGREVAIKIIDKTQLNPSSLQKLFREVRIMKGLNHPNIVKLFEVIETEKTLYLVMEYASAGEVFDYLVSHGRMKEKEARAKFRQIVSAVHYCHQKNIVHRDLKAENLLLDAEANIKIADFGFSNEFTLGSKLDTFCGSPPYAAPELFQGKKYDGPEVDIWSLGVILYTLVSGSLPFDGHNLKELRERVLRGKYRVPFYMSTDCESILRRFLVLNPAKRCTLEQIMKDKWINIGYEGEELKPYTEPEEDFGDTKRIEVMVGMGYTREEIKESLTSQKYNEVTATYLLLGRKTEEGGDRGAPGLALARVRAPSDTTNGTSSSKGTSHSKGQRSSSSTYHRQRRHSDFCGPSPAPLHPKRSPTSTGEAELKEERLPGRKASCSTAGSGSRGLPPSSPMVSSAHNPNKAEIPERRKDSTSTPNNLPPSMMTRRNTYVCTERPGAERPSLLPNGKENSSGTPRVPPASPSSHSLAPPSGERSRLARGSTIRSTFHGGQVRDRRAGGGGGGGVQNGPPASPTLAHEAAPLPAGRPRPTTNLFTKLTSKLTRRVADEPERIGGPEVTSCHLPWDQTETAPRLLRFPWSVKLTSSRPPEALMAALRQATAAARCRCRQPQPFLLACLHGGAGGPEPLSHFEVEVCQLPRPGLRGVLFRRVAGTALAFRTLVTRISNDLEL

[6] = tested on: Tyrosine-protein kinase ABL1 (Homo sapiens), P00519 [T315I]
[7] = target: Myosin light chain kinase 2, skeletal/cardiac muscle (Homo sapiens) (UniProt Q9H1R3)
Myosin light chain kinase 2, skeletal/cardiac muscle (Homo sapiens), sequence (Q9H1R3 whole entry, canonical isoform): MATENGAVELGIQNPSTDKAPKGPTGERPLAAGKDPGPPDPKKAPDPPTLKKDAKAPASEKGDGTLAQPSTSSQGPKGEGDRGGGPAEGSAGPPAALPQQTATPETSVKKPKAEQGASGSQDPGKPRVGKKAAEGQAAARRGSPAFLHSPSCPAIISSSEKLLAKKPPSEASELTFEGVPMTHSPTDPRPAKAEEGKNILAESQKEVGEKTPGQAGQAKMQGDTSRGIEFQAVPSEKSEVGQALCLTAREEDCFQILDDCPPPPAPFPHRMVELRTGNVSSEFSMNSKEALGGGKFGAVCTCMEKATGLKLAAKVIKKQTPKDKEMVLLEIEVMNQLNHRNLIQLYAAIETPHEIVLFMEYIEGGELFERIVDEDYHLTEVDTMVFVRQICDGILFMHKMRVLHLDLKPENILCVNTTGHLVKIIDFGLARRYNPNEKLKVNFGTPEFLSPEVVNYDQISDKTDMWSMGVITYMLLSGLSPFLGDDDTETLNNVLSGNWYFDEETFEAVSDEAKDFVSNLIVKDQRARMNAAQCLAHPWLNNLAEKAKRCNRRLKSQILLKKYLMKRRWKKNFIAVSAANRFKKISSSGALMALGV

[8] = tested on: Phosphatidylinositol 4,5-bisphosphate 3-kinase catalytic subunit alpha isoform (Homo sapiens), P42336 [E545K]
Phosphatidylinositol 4,5-bisphosphate 3-kinase catalytic subunit alpha isoform (Homo sapiens), P42336 [E545K], sequence (P42336 whole entry E545K, canonical isoform): as the sequence (P42336 whole entry, canonical isoform) above, with E545K counted along it

[9] = target: Cyclin-dependent kinase 19 (Homo sapiens) (UniProt Q9BWU1)
Cyclin-dependent kinase 19 (Homo sapiens), sequence (Q9BWU1 whole entry): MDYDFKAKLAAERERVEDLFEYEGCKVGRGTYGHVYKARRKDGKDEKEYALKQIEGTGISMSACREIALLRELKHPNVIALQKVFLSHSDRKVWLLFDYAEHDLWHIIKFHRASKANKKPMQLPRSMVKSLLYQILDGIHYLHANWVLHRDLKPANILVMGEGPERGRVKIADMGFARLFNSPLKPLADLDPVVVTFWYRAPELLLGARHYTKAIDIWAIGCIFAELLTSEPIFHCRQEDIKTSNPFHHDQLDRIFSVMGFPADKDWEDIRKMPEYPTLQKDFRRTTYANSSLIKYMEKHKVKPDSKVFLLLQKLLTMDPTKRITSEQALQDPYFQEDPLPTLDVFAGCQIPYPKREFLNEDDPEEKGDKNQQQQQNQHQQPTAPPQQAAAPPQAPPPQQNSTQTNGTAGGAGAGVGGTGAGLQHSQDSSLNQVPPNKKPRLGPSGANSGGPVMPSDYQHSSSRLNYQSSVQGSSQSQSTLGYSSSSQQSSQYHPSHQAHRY

[10] = target: T3, Serine/threonine-protein kinase 4 (Homo sapiens) (UniProt Q13043)
T3 sequence (whole entry): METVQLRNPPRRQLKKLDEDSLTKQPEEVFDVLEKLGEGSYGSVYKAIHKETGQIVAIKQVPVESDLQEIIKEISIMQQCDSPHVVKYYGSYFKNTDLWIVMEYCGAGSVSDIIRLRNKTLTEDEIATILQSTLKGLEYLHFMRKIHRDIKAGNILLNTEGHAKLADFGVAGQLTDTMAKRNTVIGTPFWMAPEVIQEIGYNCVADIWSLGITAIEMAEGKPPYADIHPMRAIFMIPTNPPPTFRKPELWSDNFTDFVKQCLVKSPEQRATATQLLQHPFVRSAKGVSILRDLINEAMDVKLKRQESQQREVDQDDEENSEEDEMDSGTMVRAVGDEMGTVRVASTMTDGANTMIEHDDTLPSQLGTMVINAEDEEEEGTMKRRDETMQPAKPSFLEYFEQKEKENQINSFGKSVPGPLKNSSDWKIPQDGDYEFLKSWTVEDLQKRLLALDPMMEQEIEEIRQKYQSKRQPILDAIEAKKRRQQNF

Measured: residual activity

Phosphatidylinositol 4,5-bisphosphate 3-kinase catalytic subunit delta isoform (Homo sapiens), sequence (O00329 whole entry, canonical isoform): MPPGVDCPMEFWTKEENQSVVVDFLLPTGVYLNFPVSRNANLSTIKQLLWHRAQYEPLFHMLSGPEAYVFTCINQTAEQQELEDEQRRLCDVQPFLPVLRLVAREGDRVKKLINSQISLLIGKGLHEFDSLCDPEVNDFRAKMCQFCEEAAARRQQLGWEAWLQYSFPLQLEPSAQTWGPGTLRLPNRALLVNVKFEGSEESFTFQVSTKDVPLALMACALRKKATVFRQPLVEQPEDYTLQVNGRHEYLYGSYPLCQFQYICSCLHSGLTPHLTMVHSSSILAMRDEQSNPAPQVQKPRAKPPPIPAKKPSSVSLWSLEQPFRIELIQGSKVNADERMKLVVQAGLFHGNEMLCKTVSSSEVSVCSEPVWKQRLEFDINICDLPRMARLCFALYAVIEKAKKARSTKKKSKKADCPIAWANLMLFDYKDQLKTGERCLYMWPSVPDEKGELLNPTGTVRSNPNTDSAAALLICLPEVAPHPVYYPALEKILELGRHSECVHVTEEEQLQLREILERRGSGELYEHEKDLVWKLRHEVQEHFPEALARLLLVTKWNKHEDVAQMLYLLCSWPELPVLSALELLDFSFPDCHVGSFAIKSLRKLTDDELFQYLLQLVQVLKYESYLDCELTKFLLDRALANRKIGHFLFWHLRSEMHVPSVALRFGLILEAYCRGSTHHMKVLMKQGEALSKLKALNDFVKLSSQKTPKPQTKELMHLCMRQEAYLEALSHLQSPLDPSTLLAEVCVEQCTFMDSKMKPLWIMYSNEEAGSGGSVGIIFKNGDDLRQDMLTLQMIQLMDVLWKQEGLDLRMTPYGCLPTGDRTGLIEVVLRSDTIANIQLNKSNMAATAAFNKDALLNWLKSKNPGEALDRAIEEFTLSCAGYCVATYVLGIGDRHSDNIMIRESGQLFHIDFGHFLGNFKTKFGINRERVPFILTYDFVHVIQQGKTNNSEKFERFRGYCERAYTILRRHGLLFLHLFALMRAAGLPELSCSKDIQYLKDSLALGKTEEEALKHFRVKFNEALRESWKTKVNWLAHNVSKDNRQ
Mast/stem cell growth factor receptor Kit (Homo sapiens), P10721 [V559D,V654A], sequence (P10721 whole entry V559D/V654A, canonical isoform): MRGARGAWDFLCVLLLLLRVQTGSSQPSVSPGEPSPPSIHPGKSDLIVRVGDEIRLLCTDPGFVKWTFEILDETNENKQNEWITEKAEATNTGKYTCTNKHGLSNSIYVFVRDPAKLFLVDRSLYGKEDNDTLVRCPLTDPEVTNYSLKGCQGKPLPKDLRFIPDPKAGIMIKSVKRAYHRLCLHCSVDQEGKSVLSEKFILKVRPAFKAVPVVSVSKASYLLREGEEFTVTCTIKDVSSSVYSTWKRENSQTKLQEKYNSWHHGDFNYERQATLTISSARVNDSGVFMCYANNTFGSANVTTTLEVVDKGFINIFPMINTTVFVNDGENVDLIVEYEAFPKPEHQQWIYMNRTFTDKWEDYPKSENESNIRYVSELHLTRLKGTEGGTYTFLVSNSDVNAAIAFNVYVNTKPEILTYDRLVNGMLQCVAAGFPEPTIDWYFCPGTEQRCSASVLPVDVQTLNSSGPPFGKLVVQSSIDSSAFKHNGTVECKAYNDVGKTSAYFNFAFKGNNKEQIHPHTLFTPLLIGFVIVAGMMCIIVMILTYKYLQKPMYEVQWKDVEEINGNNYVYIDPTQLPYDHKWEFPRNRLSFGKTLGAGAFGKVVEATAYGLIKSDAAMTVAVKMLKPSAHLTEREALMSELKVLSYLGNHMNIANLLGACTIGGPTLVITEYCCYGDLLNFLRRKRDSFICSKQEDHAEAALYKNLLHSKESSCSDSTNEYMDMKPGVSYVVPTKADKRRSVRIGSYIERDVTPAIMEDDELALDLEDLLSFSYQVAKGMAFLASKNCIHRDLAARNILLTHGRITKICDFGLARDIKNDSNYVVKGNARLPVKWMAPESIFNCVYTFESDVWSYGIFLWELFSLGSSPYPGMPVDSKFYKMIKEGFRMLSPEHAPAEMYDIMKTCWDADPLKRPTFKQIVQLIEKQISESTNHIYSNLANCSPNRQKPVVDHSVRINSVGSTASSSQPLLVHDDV

Cc1nc(C2CCN(C(=O)c3ccc(OC(F)(F)F)cc3N)CC2)c2ncc(N3CCN(C)CC3)cc2n1 [BAY-693]
inactive: [1] 100% | [2] 78% | [3] 94% | [4] 81% | [5] 100% | [6] 89% | [7] 87% | [8] 85% | [9] 86% | [10] 85%

CN1CCN(c2cnc3c(C4CCN(C(=O)c5ccc(OC(F)(F)F)cc5N)CC4)ncnc3c2)CC1 [BAY-885]
inactive: [1] 84% | [2] 86% | [3] 100% | [4] 95% | [5] 100% | [6] 100% | [7] 85% | [8] 100% | [9] 79% | [10] 84%
